Test results published in paper PMC4144712 (Biochemistry, 2014).

Experiments:
CXCR4 = CXCR4 (Homo sapiens, UniProt P61073); test: CXCR4-FITC-DV1 competitive binding assay; details: CHO-CXCR4 cells; 800 nM FITC-DV1
CCR3 = test: Inhibition of FITC-DV1 binding in CCR3-expressing cell line; details: data not shown
CCR5 = test: Inhibition of FITC-DV1 binding in CCR5-expressing cell line; details: data not shown

CXCR4, sequence (P61073 whole entry): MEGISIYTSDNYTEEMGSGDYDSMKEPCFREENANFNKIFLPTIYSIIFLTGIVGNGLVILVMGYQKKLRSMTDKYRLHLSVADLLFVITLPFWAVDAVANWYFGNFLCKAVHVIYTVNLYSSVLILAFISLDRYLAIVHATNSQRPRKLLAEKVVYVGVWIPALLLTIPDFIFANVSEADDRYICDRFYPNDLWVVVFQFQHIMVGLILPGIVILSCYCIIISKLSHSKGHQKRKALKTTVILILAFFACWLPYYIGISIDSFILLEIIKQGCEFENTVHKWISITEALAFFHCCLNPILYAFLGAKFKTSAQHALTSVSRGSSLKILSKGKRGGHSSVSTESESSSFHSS

| Molecule | inhibition of the binding of FITC-DV1 to CXCR4 (in words) (CXCR4) | inhibition of the binding of FITC-DV1 in CCR3-expressing cell line (CCR3) | inhibition of the binding of FITC-DV1 in CCR5-expressing cell line (CCR5) |
| --- | --- | --- | --- |
| c1cc(CN2CCCNCCNCCCNCC2)ccc1CN1CCCNCCNCCCNCC1 [AMD3100] | inhibited the binding of FITC-DV1 to CXCR4 |  |  |
| RANTES: a common ligand of CCR5 and CCR3 |  | Neither ubiquitin, a ligand of CXCR4, nor RANTES (a common ligand of CCR5 and CCR3) inhibited the binding of FITC-DV1 | Neither ubiquitin, a ligand of CXCR4, nor RANTES (a common ligand of CCR5 and CCR3) inhibited the binding of FITC-DV1 |
